Results published in the OPERA property sets (Mansouri et al. 2018).

SMILES | melting point | boiling point | log10 vapour pressure (mmHg) | log10 Koa | logP | log10 Koc (L/kg) | ready biodegradability | log10 biodegradation half-life (days) | log10 Henry constant (atm·m³/mol)
CCCC(=O)c1ccc(Cl)cc1 | 19.5 °C |  |  |  |  |  |  |  | 
CCN(C)N=O |  | 170 °C |  |  |  |  |  |  | 
CCC=CCC | -114 °C | 66.8 °C | 2.22 |  |  |  |  |  | 
Brc1ccc(Oc2ccc(Br)cc2Br)c(Br)c1 |  |  | -7.15 | 10.5 | 6.81 |  |  |  | 
CC(C)OC(=O)C(=O)OC(C)C |  | 191 °C |  |  |  |  |  |  | 
Cc1cccc(C)c1C(=O)O | 116 °C | 274 °C |  |  |  |  |  |  | 
CC1(C)[C@H](/C=C(\Cl)C(F)(F)F)[C@@H]1C(=O)O[C@H](C#N)c1cccc(Oc2ccccc2)c1 |  |  | -8.47 |  |  | 5.26 |  |  | 
FCC(F)F | -84 °C | 5 °C |  |  |  |  |  |  | 
Nc1ccc2cc(S(=O)(=O)O)cc(O)c2c1 |  |  |  |  |  |  | not readily biodegradable |  | 
C=CCNS(=O)(=O)c1cc(S(N)(=O)=O)c(Cl)cc1/N=C/C=C(/C)O | 206 °C |  |  |  |  |  |  |  | 
ClCc1ccc(Br)cc1 | 50 °C | 236 °C |  |  |  |  |  |  | 
CCCCC(Cl)CCl (configuration not stated) |  | 173 °C |  |  |  |  |  |  | 
Clc1ccc2ccc(Cl)cc2c1 |  |  |  | 6.7 |  |  |  |  | 
c1ccc(-c2cccc(-c3ccccc3)c2)cc1 | 87 °C | 363 °C | -4.76 |  |  |  |  |  | 
CNc1ccc(Cl)cc1 |  | 240 °C |  |  |  |  |  |  | 
COc1ccccc1-c1ccccc1OC |  | 308 °C |  |  |  |  |  |  | 
COc1c2occc2cc2ccc(=O)oc12 | 148 °C |  |  |  |  |  | not readily biodegradable |  | 
CC(C)(C)c1cc(O)c(C(C)(C)C)cc1O | 218 °C |  |  |  |  |  |  |  | 
O=S1CCCC1 |  | 236 °C |  |  |  |  |  |  | 
O=S(=O)(O)c1ccc2ccccc2c1 | 91 °C |  |  |  |  |  |  |  | 
Cc1cccc(C(=O)c2ccccc2)c1 |  | 317 °C |  |  |  |  |  |  | 

SMILES | melting point | boiling point | log10 vapour pressure (mmHg) | log10 Koa | logP | log10 Koc (L/kg) | ready biodegradability | log10 biodegradation half-life (days) | log10 Henry constant (atm·m³/mol)
Cc1ccc(N)cc1Cl | 26 °C | 243 °C |  |  |  |  |  |  | 
CC1=NNC(=O)N(/N=C/c2cccnc2)C1 | 217 °C |  |  |  |  |  |  |  | 
O=C(Nc1ccc2nn(C3CCCCC3)nc2c1)c1ccccc1 | 212 °C |  |  |  |  |  |  |  | 
CCCCNCC | -78 °C | 108 °C |  |  |  |  | readily biodegradable |  | 
CCCSP(=S)(OCC)Oc1ccc(SC)cc1 (configuration not stated) | -15 °C |  | -5.92 |  |  | 4.08 |  |  | 
ON=Cc1ccc(F)cc1 | 83.5 °C |  |  |  |  |  |  |  | 
CCCCCCCCC(=O)OCCCCCCC | -15.5 °C |  |  |  |  |  |  |  | 
Cc1cccc2ccoc12 | 109 °C | 190 °C |  |  |  |  |  |  | 
Ic1cc(I)c(I)c(I)c1 | 148 °C |  |  |  |  |  |  |  | 
COc1nccnc1N(C(C)=O)S(=O)(=O)c1ccc(N)cc1 | 199 °C |  |  |  |  |  |  |  | 
C1C2CC3C4CC5CC(C14)C(C2)C3C5 |  |  |  |  |  |  |  | 3.3 | 
CCCCCCCCCCCCCCCC(=O)OC[C@H](O)[C@H]1OC(=O)C(O)=C1O | 116 °C |  |  |  |  |  |  |  | 
C=C(c1ccccc1)c1ccccc1 | 8.2 °C | 277 °C | -1.88 |  |  |  |  |  | 
CCC(C(N)=O)n1nc2ccccc2n1 (configuration not stated) | 128 °C |  |  |  |  |  |  |  | 
Nc1ncc2ncn(COCCO)c2n1 | 189 °C |  |  |  |  |  |  |  | 
CN1C(CSCC(F)(F)F)Nc2cc(Cl)c(S(N)(=O)=O)cc2S1(=O)=O (configuration not stated) | 214 °C |  |  |  |  |  |  |  | 
C=CCCCCCCCCCCCCCCCCCC | 28.5 °C | 341 °C | -4.98 |  |  |  |  |  | 
CC(C)C#N | -71.5 °C | 104 °C | 1.51 | 2.87 |  |  | readily biodegradable |  | 
CCCOC(N)=O | 60 °C | 196 °C | -1.26 |  |  |  |  |  | 
CCCC(C)CC(C)C (configuration not stated) |  | 133 °C |  |  |  |  |  | 0.778 | 
CC(C)(C)c1nnc(NS(=O)(=O)c2ccc(N)cc2)s1 | 222 °C |  |  |  |  |  |  |  | 

SMILES | melting point | boiling point | log10 vapour pressure (mmHg) | log10 Koa | logP | log10 Koc (L/kg) | ready biodegradability | log10 biodegradation half-life (days) | log10 Henry constant (atm·m³/mol)
Cc1ccccc1C(=O)O | 104 °C | 259 °C | -3.18 |  |  |  | readily biodegradable |  | 
CN(C)c1ccc2cc3ccc(N(C)C)cc3nc2c1 | 165 °C |  |  |  |  |  |  |  | 
COc1cc2c(c(O)c1OC)C(C)N(C)CC2 (configuration not stated) | 112 °C |  |  |  |  |  |  |  | 
CCOc1ccc(O)cc1 | 66.5 °C | 246 °C |  |  |  |  |  |  | 
Cc1cc(C)c2ccccc2c1C | 55.5 °C |  |  |  |  |  |  |  | 
N#CC(=NO)c1ccccc1 | 129 °C |  |  |  |  |  |  |  | 
CC(C)CNCC(C)C | -73.5 °C | 140 °C | 0.862 |  |  |  | readily biodegradable |  | 
Cc1cc(=O)oc2cc(O)ccc12 | 196 °C |  |  |  |  |  |  |  | 
CC(COc1ccccc1)N(CCCl)Cc1ccccc1 (configuration not stated) | 39 °C |  |  |  |  |  |  |  | 
O=C(O)CCCC(=O)c1ccccc1 | 127 °C |  |  |  |  |  |  |  | 
ClC1=C(Cl)C2(Cl)C3C(Cl)C(Cl)CC3C1(Cl)C2(Cl)Cl (configuration not stated) | 106 °C |  | -4.69 |  |  | 4.78 | not readily biodegradable |  | -3.53
CC(=O)NCCS | 6.5 °C |  |  |  |  |  |  |  | 
O=C(Oc1ccccc1C(=O)O)c1ccccc1O | 147 °C |  |  |  |  |  |  |  | 
CCC(CC)[N+](=O)[O-] |  |  |  |  |  |  | readily biodegradable |  | 
CC(=O)NCc1ccccc1 | 61 °C |  |  |  |  |  | readily biodegradable |  | 
Clc1cc(Cl)c(-c2cccc(Cl)c2Cl)cc1Cl |  |  |  |  |  | 5.69 |  |  | -4.13
CN1CCCN=C1/C=C/c1cccs1 | 178 °C |  |  |  |  |  |  |  | 
CCCCCOC=O | -73.5 °C | 130 °C |  |  |  |  |  |  | 
COC(=O)c1ccccc1C(=O)OC | 5.5 °C | 284 °C | -2.51 |  |  | 1.6 | readily biodegradable |  | 
CC(C)C(=O)O | -46 °C | 154 °C | 0.258 |  |  |  | readily biodegradable |  | -6.05
